Data as given in patent US12667572B2, “Tricyclic compounds useful in the treatment of cancer, autoimmune and inflammatory disorders” (SCHRÖDINGER, INC., priority 2021, dated 2026).

What was measured:
[1] = system: IL10 secretion in OCI-LY10 cells; assay: Human IL10 secretion assay, Assay 1 (HTRF); type: cell-based; conditions: 24 h incubation, read-out: IL-10 Secretion IC50 [nM] Assay 1
Protocol: IL10 is one of the cytokines that are regulated via activation of NF-kB signaling. For example, in ABC-DLBCL cell lines, the activated NF-kB signaling leads to increased IL10 secretion. Inhibition of NF-kB signaling has been shown leading to decreased IL10 secretion.
Assay 1: OCI-LY10 cells were seeded in IMEM supplemented with 20% fetal bovine serum at 3×10^5 cells per well in 96-well round bottom plates (Corning 3799, Corning), treated with 100 nL of 3-fold serial compound dilutions, starting at 10 mM. The final vehicle concentration was 0.1% DMSO in all wells. After 24 h incubation, the cells were transferred to 96-PCR plates (Axygen: PCR-96-FLT-C) and centrifuged, then 16 μL of cell culture media was transferred to HTRF plates and IL10 levels were measured using human IL-10 Assay Kits (Cisbio) using HTRF format. The signals were transformed to percentage of remaining activity by using the high control (HC, median of signal from wells containing cells treated with DMSO) and low control (LC, median of signal from wells with no cells). IC50 values (nM) were determined using 4-parametric curve-fitting and Hill coefficient obtained using Graph Pad Prism (Graph Pad software, Inc, USA) with non-linear regression analysis.

[2] = target: T1, full-length MALT1 protein His-MALT1(1-824) (Homo sapiens, UniProt Q9UDY8); assay: MALT1 protease assay, Assay 1 (2 nM MALT1, Ac-LRSR-AMC substrate); type: biochemical; conditions: 2 nM MALT1, 50 μM Ac-LRSR-AMC, 2 h pre-incubation, 8 hr incubation at RT
T1 construct: full-length MALT1 protein His-MALT1(1-824); His (N); made in house; host or cells: baculovirus-infected insect cells
T1 sequence (Q9UDY8 1-824): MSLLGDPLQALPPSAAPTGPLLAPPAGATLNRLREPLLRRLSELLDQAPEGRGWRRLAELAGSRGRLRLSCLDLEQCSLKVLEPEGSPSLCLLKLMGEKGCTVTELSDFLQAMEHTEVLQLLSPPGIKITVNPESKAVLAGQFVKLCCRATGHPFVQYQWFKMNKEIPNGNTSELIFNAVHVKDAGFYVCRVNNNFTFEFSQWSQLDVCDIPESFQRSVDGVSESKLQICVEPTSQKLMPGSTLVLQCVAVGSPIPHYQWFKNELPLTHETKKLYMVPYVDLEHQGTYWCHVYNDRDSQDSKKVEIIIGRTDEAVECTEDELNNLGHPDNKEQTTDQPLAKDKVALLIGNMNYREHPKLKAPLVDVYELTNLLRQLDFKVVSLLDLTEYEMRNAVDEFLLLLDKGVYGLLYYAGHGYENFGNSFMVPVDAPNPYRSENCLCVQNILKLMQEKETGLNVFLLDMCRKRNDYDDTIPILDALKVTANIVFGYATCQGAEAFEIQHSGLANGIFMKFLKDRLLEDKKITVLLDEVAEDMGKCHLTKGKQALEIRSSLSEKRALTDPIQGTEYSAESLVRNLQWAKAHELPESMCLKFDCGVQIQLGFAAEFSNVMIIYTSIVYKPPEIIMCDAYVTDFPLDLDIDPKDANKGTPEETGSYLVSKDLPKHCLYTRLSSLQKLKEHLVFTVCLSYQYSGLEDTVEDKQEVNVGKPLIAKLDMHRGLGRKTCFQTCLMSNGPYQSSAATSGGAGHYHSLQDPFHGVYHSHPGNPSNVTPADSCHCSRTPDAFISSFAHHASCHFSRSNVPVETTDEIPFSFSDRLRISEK
Summary of the method: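 Compounds (0.1% DMSO final) sat 2 h at RT with insect-cell-expressed His-MALT1(1-824), in 50 mM Tris pH 7.5, 600 mM sodium citrate, 1 mM DTT, 1 mM EDTA, 0.05% BSA. Cleavage of 50 μM Ac-LRSR-AMC (Km ~100 μM) ran 8 h at RT, read as AMC fluorescence. IC50 and Hill coefficient fitted to % remaining activity.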

Structure (SMILES) | IC50 [1] [nM] | IC50 [2] [nM]
CC1(C)CC(C(=O)Nc2cnc(-n3nccn3)c(Cl)c2)c2cnc3cc(C(F)F)nn3c21 (single isomer, unassigned) [Example 25, N-(5-chloro-6-(2H-1,2,3-triazol-2-yl)pyridin-3-yl)-2-(difluoromethyl)-8,8-dimethyl-7,8-dihydro-6H-cyclopenta[e]pyrazolo[1,5-a]pyrimidine-6-carboxamide] | 100 to 1000 | 10 to 100
Cn1cnc(-c2ncc(NC(=O)C3CC(C)(C)c4c3cnc3cc(Cl)nn43)cc2Cl)c1 (single isomer, unassigned) [Example 35, 2-chloro-N-(5-chloro-6-(1-methyl-1H-imidazol-4-yl)pyridin-3-yl)-8,8-dimethyl-7,8-dihydro-6H-cyclopenta[e]pyrazolo[1,5-a]pyrimidine-6-carboxamide] | ≥ 1000 | 10 to 100
CC1(C)CC(C(=O)Nc2cnc(-n3cccn3)c(Cl)c2)c2cnc3cc(Cl)nn3c21 (single isomer, unassigned) [Example 13, 2-chloro-N-(5-chloro-6-(1H-pyrazol-1-yl)pyridin-3-yl)-8,8-dimethyl-7,8-dihydro-6H-cyclopenta[e]pyrazolo[1,5-a]pyrimidine-6-carboxamide] | 100 to 1000 | 10 to 100
CC1(C)CC(C(=O)Nc2cnc(-n3ncc(CO)n3)c(Cl)c2)c2cnc3cc(Cl)nn3c21 (single isomer, unassigned) [Example 31, 2-chloro-N-(5-chloro-6-(4-(hydroxymethyl)-2H-1,2,3-triazol-2-yl)pyridin-3-yl)-8,8-dimethyl-7,8-dihydro-6H-cyclopenta[e]pyrazolo[1,5-a]pyrimidine-6-carboxamide] | 100 to 1000 | < 10
CC1(C)C[C@H](C(=O)Nc2cnc([C@H]3CCCO3)c(Cl)c2)c2cnc3cc(Cl)nn3c21 (single isomer, unassigned) [Example 29, 2-chloro-N-(5-chloro-6-(tetrahydrofuran-2-yl)pyridin-3-yl)-8,8-dimethyl-7,8-dihydro-6H-cyclopenta[e]pyrazolo[1,5-a]pyrimidine-6-carboxamide] | 100 to 1000 | 10 to 100
CCc1cc2ncc3c(n2n1)C(C)(C)CC3C(=O)Nc1cnc(-n2nccn2)c(Cl)c1 (single isomer, unassigned) [Example 21, N-(5-chloro-6-(2H-1,2,3-triazol-2-yl)pyridin-3-yl)-2-ethyl-8,8-dimethyl-7,8-dihydro-6H-cyclopenta[e]pyrazolo[1,5-a]pyrimidine-6-carboxamide] | ≥ 1000 | 10 to 100
CC(C)(O)c1cnn(-c2ncc(NC(=O)C3CC(C)(C)c4c3cnc3cc(Cl)nn43)cc2Cl)n1 (single isomer, unassigned) [Example 23, 2-chloro-N-(5-chloro-6-(4-(2-hydroxypropan-2-yl)-2H-1,2,3-triazol-2-yl)pyridin-3-yl)-8,8-dimethyl-7,8-dihydro-6H-cyclopenta[e]pyrazolo[1,5-a]pyrimidine-6-carboxamide] | 100 to 1000 | < 10
CC1(C)CC(C(=O)Nc2cnc(-n3nccn3)c(Cl)c2)c2cnc3cc(C#N)nn3c21 (single isomer, unassigned) [Example 4, N-(5-chloro-6-(2H-1,2,3-triazol-2-yl)pyridin-3-yl)-2-cyano-8,8-dimethyl-7,8-dihydro-6H-cyclopenta[e]pyrazolo[1,5-a]pyrimidine-6-carboxamide] | 100 to 1000 | 10 to 100

The remaining lines, values ahead:

IC50 [1] [nM] | IC50 [2] [nM] | Structure (SMILES)
100 to 1000 | 10 to 100 | CC1(C)CCC(C(=O)Nc2cnc(-n3nccn3)c(Cl)c2)c2cnc3cc(Cl)nn3c21 (single isomer, unassigned) [Example 9, 2-chloro-N-(5-chloro-6-(2H-1,2,3-triazol-2-yl)pyridin-3-yl)-9,9-dimethyl-6,7,8,9-tetrahydropyrazolo[1,5-a]quinazoline-6-carboxamide]
100 to 1000 | < 10 | C[C@@]1(C(F)(F)F)C[C@H](C(=O)Nc2cnc(-n3nccn3)c(Cl)c2)c2cnc3cc(Cl)nn3c21 (single isomer, unassigned) [Example 36, 2-chloro-N-(5-chloro-6-(2H-1,2,3-triazol-2-yl)pyridin-3-yl)-8-methyl-8-(trifluoromethyl)-7,8-dihydro-6H-cyclopenta[e]pyrazolo[1,5-a]pyrimidine-6-carboxamide]
≥ 1000 | 10 to 100 | C[C@]1(C(F)(F)F)C[C@@H](C(=O)Nc2cnc(-n3nccn3)c(Cl)c2)c2cnc3cc(Cl)nn3c21 (single isomer, unassigned) [Example 37, 2-chloro-N-(5-chloro-6-(2H-1,2,3-triazol-2-yl)pyridin-3-yl)-8-methyl-8-(trifluoromethyl)-7,8-dihydro-6H-cyclopenta[e]pyrazolo[1,5-a]pyrimidine-6-carboxamide]
100 to 1000 | < 10 | C[C@]1(C(F)(F)F)C[C@H](C(=O)Nc2cnc(-n3nccn3)c(Cl)c2)c2cnc3cc(Cl)nn3c21 (single isomer, unassigned) [Example 38, 2-chloro-N-(5-chloro-6-(2H-1,2,3-triazol-2-yl)pyridin-3-yl)-8-methyl-8-(trifluoromethyl)-7,8-dihydro-6H-cyclopenta[e]pyrazolo[1,5-a]pyrimidine-6-carboxamide]
10 to 100 | < 10 | CC1(C)CC(C(=O)Nc2cnc(-n3nccn3)c(Cl)c2)c2cnc3cc(F)nn3c21 (single isomer, unassigned) [Example 33, N-(5-chloro-6-(2H-1,2,3-triazol-2-yl)pyridin-3-yl)-2-fluoro-8,8-dimethyl-7,8-dihydro-6H-cyclopenta[e]pyrazolo[1,5-a]pyrimidine-6-carboxamide]
